Test results: patent US12227488B2, “Small molecule degraders of Helios and methods of use” (DANA-FARBER CANCER INSTITUTE, INC., priority 2018, dated 2025)

What was measured:
[1] = molecular target: T1, IKZF1 (Homo sapiens, UniProt Q13422); assay: Cellular degradation assay, eGFP-IKZF1Δ fusion with mCherry reporter in Flp-In 293 cells; format: cell-based; settings: 5 h incubation, n=1
T1 construct: expressed in transfected cells; host or cells: Flp-In 293
Outline: (§1)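 DC50,5 h derived by variable-slope nonlinear fit of the per-well ratio of GFP-positive to mCherry-positive cells, imaged after 5 h compound exposure at 0.5% DMSO.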

[2] = system: IKZF2; assay: Cellular degradation assay, eGFP-IKZF2Δ fusion with mCherry reporter in Flp-In 293 cells; format: cell-based; settings: 5 h incubation, n=1
Outline: as §1

[3] = molecular target: T2, SALL4 ZNF1-2 (Homo sapiens, UniProt Q96SW2+Q9UJQ4); assay: Cellular degradation assay, eGFP-SALL4 ZnF1-2 fusion with mCherry reporter in Flp-In 293 cells; format: cell-based; settings: 5 h incubation, n=1
T2 construct: IKZF1Δ, IKZF2Δ, GSPT1 and SALL4 ZnF1-2 were subcloned; expressed in transfected cells; host or cells: Flp-In 293
Outline: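 Read-out is the ratio of GFP-positive to mCherry-positive cells per well, imaged at 488 and 561 nm right after 5-hour compound exposure (normalised to 0.5% DMSO). Cells: Flp-In 293 stably carrying eGFP-P2A-mCherry construct fused to SALL4 ZnF1-2.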

[4] = molecular target: T3, CRBN and Helios (IKZF2) (Homo sapiens, UniProt Q96SW2+Q9UKS7); assay: TR-FRET dimerization assay (CRBN-IKZF2 ternary complex formation); format: binding; settings: n=1
T3 construct: His (N); Strep (N)
Outline: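 Compound-induced IKZF2 recruitment to CRBN was read as the 520/490 nm TR-FRET ratio after 15 min at rt. The mix held biotinylated IKZF2, BODIPY-labeled CRBN bound to DDB1 lacking the BPB propeller, tracer Tb-streptavidin and compound titrations; n=1, from ≥3 technical replicates per well.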

[5] = molecular target: GSPT1 (Homo sapiens, UniProt P15170+Q96SW2); assay: Cellular degradation assay, eGFP-GSPT1 fusion with mCherry reporter in Flp-In 293 cells; format: cell-based; set-up: expressed in transfected cells; host or cells: Flp-In 293; settings: 5 h incubation, n=1
Outline: as §1

[6] = compound concentration 2.00E−05
[7] = compound concentration 2.00E−06
[8] = compound concentration 2.00E−07
[9] = compound concentration 6.6667E−05
[10] = compound concentration 6.6667E−06
[11] = compound concentration 6.6667E−07 (667 nM)

T1 sequence (Q13422 83-213 isoform Q13422-7 limits assumed): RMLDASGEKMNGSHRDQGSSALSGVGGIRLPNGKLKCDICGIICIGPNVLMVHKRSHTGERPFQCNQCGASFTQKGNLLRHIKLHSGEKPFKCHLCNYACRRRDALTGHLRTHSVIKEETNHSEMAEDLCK
T1 sequence (Q96SW2 whole entry partner, the tested form may be a part): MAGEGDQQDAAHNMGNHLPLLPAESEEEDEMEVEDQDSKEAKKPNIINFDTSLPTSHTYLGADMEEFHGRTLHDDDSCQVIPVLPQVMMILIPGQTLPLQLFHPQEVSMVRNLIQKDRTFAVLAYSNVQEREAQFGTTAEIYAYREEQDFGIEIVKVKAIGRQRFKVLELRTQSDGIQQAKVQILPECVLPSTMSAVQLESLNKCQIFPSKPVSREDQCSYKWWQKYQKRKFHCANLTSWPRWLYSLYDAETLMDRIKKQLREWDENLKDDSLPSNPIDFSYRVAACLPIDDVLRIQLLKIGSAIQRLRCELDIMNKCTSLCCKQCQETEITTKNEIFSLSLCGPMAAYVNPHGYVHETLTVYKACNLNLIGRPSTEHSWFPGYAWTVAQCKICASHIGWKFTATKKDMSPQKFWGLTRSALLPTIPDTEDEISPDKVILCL
T1 sequence (Q16531 2-1140 partner limits assumed): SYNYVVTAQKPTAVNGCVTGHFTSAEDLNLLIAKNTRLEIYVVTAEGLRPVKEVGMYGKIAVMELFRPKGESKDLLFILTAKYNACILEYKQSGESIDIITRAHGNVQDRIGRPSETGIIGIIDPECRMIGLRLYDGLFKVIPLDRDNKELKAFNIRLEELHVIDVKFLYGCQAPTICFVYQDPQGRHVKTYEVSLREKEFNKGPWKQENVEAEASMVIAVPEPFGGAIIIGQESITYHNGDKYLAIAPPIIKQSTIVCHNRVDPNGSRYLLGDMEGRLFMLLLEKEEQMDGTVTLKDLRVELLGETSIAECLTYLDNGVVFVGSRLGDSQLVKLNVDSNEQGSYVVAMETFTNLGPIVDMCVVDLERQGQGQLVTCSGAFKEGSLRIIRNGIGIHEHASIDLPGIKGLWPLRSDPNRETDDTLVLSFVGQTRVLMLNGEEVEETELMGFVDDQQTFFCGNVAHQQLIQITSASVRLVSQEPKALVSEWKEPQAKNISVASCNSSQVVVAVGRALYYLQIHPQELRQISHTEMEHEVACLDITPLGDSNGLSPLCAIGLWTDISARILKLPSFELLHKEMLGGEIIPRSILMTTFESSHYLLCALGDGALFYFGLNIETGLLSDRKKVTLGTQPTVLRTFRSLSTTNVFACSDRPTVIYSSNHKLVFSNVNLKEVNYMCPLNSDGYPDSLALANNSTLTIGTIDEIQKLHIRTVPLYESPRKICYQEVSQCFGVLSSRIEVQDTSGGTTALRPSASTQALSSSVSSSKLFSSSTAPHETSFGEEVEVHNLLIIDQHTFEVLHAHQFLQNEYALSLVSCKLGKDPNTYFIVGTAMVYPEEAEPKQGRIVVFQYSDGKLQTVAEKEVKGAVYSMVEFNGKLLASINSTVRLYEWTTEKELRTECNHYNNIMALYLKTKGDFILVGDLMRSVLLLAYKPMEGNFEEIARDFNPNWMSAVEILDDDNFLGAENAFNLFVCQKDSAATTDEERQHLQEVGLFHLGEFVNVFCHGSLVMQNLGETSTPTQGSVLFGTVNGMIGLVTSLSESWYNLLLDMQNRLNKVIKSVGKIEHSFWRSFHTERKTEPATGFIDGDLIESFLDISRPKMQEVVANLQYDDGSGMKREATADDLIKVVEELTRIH
T3 sequence (Q96SW2 whole entry): as the sequence (Q96SW2 whole entry partner, the tested form may be a part) above
T3 sequence (Q9UKS7 whole entry): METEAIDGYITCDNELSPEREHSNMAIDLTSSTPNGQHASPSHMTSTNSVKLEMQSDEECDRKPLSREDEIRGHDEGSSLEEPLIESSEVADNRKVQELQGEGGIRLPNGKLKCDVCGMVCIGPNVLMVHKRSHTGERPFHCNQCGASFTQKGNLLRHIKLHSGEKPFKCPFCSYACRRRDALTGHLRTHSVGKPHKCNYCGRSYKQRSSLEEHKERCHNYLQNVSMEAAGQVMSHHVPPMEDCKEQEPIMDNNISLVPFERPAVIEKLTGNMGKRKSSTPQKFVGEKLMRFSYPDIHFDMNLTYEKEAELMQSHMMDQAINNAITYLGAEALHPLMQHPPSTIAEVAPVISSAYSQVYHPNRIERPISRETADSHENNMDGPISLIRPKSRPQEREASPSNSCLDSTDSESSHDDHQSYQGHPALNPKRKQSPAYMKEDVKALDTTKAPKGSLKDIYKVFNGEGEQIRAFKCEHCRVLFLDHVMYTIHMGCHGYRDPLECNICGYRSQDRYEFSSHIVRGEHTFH
T2 sequence (Q9UJQ4 378-438 limits assumed): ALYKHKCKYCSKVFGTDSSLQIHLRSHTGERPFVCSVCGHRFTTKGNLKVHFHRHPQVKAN
T2 sequence (Q96SW2 whole entry, the tested form may be a part): as the sequence (Q96SW2 whole entry partner, the tested form may be a part) above
T2 sequence (Q16531 whole entry partner, the tested form may be a part): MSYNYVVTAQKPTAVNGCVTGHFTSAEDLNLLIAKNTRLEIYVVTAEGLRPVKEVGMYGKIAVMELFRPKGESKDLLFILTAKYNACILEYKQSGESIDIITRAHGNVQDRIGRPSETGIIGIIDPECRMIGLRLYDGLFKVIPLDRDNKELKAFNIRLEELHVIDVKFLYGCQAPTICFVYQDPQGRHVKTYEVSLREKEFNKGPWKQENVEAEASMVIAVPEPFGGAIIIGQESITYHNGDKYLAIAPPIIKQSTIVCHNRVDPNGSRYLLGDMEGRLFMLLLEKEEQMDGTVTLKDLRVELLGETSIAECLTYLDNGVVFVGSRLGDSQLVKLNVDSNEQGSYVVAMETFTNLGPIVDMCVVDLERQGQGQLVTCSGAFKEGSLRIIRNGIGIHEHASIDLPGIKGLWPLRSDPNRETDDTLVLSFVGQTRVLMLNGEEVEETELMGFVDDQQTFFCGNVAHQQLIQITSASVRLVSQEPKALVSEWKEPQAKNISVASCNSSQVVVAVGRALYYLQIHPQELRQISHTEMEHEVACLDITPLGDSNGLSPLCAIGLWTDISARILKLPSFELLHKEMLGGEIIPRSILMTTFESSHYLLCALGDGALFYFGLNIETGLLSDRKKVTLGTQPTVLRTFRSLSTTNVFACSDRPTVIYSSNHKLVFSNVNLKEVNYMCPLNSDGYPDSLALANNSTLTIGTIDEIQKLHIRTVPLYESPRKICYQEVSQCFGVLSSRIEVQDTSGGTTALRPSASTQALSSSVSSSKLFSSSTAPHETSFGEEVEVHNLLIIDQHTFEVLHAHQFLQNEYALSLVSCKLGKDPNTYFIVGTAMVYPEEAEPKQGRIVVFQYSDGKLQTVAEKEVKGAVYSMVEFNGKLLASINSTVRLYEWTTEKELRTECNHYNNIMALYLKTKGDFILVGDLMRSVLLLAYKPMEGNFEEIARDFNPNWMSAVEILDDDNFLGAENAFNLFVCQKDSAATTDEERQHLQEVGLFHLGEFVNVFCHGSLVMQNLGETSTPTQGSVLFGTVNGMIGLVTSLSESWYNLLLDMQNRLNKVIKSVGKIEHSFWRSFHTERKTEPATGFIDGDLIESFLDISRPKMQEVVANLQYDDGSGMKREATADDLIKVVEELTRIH
Chain of GSPT1 (P15170 whole entry, the tested form may be a part): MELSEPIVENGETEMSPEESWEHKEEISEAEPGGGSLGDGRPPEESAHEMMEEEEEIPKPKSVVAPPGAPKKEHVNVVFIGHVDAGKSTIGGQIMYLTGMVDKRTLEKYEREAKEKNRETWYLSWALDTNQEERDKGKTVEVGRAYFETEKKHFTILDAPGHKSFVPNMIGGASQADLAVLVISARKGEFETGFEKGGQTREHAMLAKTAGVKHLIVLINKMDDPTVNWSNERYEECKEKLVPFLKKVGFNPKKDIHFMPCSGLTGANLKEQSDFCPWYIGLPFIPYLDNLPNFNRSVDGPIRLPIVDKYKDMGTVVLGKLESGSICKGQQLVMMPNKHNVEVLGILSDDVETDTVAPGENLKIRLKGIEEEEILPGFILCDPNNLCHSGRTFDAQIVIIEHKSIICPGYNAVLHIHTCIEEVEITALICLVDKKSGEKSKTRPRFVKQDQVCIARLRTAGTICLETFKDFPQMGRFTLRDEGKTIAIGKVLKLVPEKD
Chain of GSPT1 (Q96SW2 whole entry, the tested form may be a part): as the sequence (Q96SW2 whole entry partner, the tested form may be a part) above
Chain of GSPT1 (Q16531 whole entry partner, the tested form may be a part): as the sequence (Q16531 whole entry partner, the tested form may be a part) above

| Structure (SMILES) | IKZF1 GFP/RFP Relative Abundance [1, 6] | IKZF1 GFP/RFP Relative Abundance [1, 7] | IKZF1 GFP/RFP Relative Abundance [1, 8] | IKZF2 GFP/RFP Relative Abundance [2, 6] | IKZF2 GFP/RFP Relative Abundance [2, 7] | IKZF2 GFP/RFP Relative Abundance [2, 8] | SALL4 ZNF1-2 GFP/RFP Relative Abundance [3, 6] | SALL4 ZNF1-2 GFP/RFP Relative Abundance [3, 7] | SALL4 ZNF1-2 GFP/RFP Relative Abundance [3, 8] | TR-FRET-IKZF2 (Normalized to CC-885) [4, 9] | TR-FRET-IKZF2 (Normalized to CC-885) [4, 10] | TR-FRET-IKZF2 (Normalized to CC-885) [4, 11] | GSPT1 GFP/RFP Relative Abundance [5, 6] | GSPT1 GFP/RFP Relative Abundance [5, 7] | GSPT1 GFP/RFP Relative Abundance [5, 8] |
| --- | --- | --- | --- | --- | --- | --- | --- | --- | --- | --- | --- | --- | --- | --- | --- |
| O=C1CCC(N2C(=O)C=C(Nc3cccc(-c4cc[nH]n4)c3)C2=O)C(=O)N1 (stereo not drawn) [Compound 31, 3-(3-((3-(1H-pyrazol-3-yl)phenyl)amino)-2,5-dioxo-2,5-dihydro-1H-pyrrol-1-yl)piperidine-2,6-dione] | 0.254 | 0.290 | 0.399 | 0.494 | 0.638 | 0.766 | 0.755 | 0.626 | 0.713 | 0.628 | 0.521 | 0.434 | 0.666 | 1.197 | 1.240 |
| O=C1CCC(N2C(=O)C=C(Nc3ccc4cn[nH]c4c3)C2=O)C(=O)N1 (stereo not drawn) [Compound 32, 3-(3-((1H-indazol-6-yl)amino)-2,5-dioxo-2,5-dihydro-1H-pyrrol-1-yl)piperidine-2,6-dione] | 0.748 | 0.795 | 0.832 | 1.008 | 0.941 | 0.958 | 1.008 | 0.889 | 0.901 | 0.274 | 0.213 | 0.210 | 0.646 | 0.855 | 0.970 |
| CN(C)C(=O)c1cccc(NC2=CC(=O)N(C3CCC(=O)NC3=O)C2=O)c1 (stereo not drawn) [Compound 33, 3-((1-(2,6-dioxopiperidin-3-yl)-2,5-dioxo-2,5-dihydro-1H-pyrrol-3-yl)amino)-N,N-dimethylbenzamide] | 0.339 | 0.413 | 0.445 | 0.372 | 0.521 | 0.570 | 0.783 | 0.813 | 0.860 | 0.584 | 0.491 | 0.452 | 0.944 | 0.952 | 0.956 |
| CN(C)C(=O)c1ccc(NC2=CC(=O)N(C3CCC(=O)NC3=O)C2=O)cc1 (stereo not drawn) [Compound 34, 4-((1-(2,6-dioxopiperidin-3-yl)-2,5-dioxo-2,5-dihydro-1H-pyrrol-3-yl)amino)-N,N-dimethylbenzamide] | 1.042 | 0.984 | 0.904 | 0.981 | 1.018 | 0.950 | 0.940 | 0.944 | 0.943 | 0.077 | 0.064 | 0.059 | 0.867 | 0.821 | 0.878 |
| CN(C)C(=O)Cc1cccc(NC2=CC(=O)N(C3CCC(=O)NC3=O)C2=O)c1 (stereo not drawn) [Compound 35, 2-(3-((1-(2,6-dioxopiperidin-3-yl)-2,5-dioxo-2,5-dihydro-1H-pyrrol-3-yl)amino)phenyl)-N,N-dimethylacetamide] | 0.154 | 0.181 | 0.182 | 0.667 | 0.709 | 0.806 | 0.928 | 0.903 | 0.888 | 0.520 | 0.447 | 0.402 | 0.975 | 1.074 | 0.938 |
| CN(C)C(=O)Cc1ccc(NC2=CC(=O)N(C3CCC(=O)NC3=O)C2=O)cc1 (stereo not drawn) [Compound 36, 2-(4-((1-(2,6-dioxopiperidin-3-yl)-2,5-dioxo-2,5-dihydro-1H-pyrrol-3-yl)amino)phenyl)-N,N-dimethylacetamide] | 0.687 | 0.796 | 0.860 | 0.943 | 1.027 | 1.049 | 1.000 | 1.033 | 0.974 | 0.183 | 0.148 | 0.115 | 1.112 | 1.009 | 1.006 |
| O=C1CCC(N2C(=O)C=C(Nc3ccc4cc[nH]c4c3)C2=O)C(=O)N1 (stereo not drawn) [Compound 37, 3-(3-((1H-indol-6-yl)amino)-2,5-dioxo-2,5-dihydro-1H-pyrrol-1-yl)piperidine-2,6-dione] | 0.315 | 0.349 | 0.344 | 0.938 | 1.004 | 0.988 | 0.939 | 0.865 | 0.891 | 0.620 | 0.422 | 0.355 | 0.787 | 1.111 | 1.010 |
| O=C1CCC(N2C(=O)C=C(Nc3ccc(-c4ccccc4)cc3)C2=O)C(=O)N1 (stereo not drawn) [Compound 38, 3-(3-([1,1′-biphenyl]-4-ylamino)-2,5-dioxo-2,5-dihydro-1H-pyrrol-1-yl)piperidine-2,6-dione] | 0.728 | 0.663 | 0.621 | 0.885 | 1.002 | 0.977 | 1.005 | 0.887 | 0.742 | 0.328 | 0.266 | 0.210 | 1.174 | 1.216 | 0.870 |
